Patent US12128040B2, “Selective estrogen receptor degraders” (Eli Lilly and Company, priority 2018, dated 2024)

Experiments:
ERα (Y537S mutant) = target: T1, ERα (Y537S mutant) (Homo sapiens, UniProt P03372, Y537S); assay: ERα (Y537S mutant) competition binding assay; details: 3H-estradiol competition, n=3
T1 sequence (P03372 1-595 Y537S): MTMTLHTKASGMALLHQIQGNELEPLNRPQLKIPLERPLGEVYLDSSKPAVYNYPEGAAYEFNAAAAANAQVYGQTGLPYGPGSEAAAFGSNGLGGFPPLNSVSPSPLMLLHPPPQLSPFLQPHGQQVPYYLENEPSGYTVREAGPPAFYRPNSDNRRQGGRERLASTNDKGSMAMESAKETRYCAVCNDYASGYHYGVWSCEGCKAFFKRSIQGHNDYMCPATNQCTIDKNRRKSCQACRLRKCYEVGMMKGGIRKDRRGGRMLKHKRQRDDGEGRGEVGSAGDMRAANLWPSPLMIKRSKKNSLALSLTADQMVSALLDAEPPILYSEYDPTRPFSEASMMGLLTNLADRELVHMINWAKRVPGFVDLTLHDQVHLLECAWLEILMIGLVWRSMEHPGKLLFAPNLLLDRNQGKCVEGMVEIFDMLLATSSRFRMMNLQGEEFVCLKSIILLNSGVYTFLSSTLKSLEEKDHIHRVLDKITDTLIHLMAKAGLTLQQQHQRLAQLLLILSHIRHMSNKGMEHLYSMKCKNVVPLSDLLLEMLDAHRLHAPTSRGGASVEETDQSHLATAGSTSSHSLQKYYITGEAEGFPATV
Description: The purpose of the following ER competition binding assays is to determine the binding affinity of a test compound against ERα (wild type) and ERα (Y537S mutant) See Fanning et al., “Estrogen receptor alpha somatic mutations Y537S and D538G confer breast cancer endocrine resistance by stabilizing the activating function-2 binding conformation,” eLife 2016; 5:e12792.
Run the competition binding assay in a buffer containing 50 mM HEPES, pH 7.5, 1.5 mM EDTA, 150 mM NaCl, 10% glycerol, 1 mg/mL ovalbumin, and 5 mM DTT, using 0.025 µCi per well ^3H-estradiol (118 Ci/mmol, 1 mCi/mL), 7.2 ng/well ERα (wild type), or 7.2 ng/well ERα (Y537S mutant). Add the test compound at 10 different concentrations ranging from 10,000 nM to 0.5 nM, and determine nonspecific binding in the presence of 1 μM of […]. Incubate the binding reaction (140 μL) for 4 hours at room temperature, and then add cold dextran-charcoal buffer (70 μL) (containing per 50 mL of assay buffer, 0.75 g of charcoal and 0.25 g of dextran) to each reaction. Mix the plates for 8 minutes on an orbital shaker at 4° C. and then centrifuge at 3000 rpm at 4° C. for 10 minutes. […] After an incubation of 2.5 hours, read the plates in a Wallac Microbeta counter. […]

[1] = test system: Y537N mutant ERα receptor; assay: PRα inhibition (ERα functional antagonism) cell assay in MCF7-ESR1 Y537N 682 CRISPR cells; type: cell-based; details: Homo sapiens; MCF7-ESR1 Y537N 682 cells, 72 hours, n=14; read-out: Relative IC50 (nM), PRα inhibition
Excerpt: The purpose of the following PRα inhibition (ERα functional antagonism) cell assay is to determine the antagonistic activity of a test compound against the Y537N mutant ERα receptor. An antagonist in this assay is expected to block the function of the ERα receptor.
Culture MCF7-ESR1 Y537N-682 (generated by CRISPR/Cas9 gene editing of ESR1 gene in MCF7 cells, clone #682) in DMEM media supplemented with 10% FBS and 1% penicillin/streptomycin antibiotics and plate the cells (prior to becoming 70% confluent) in 384-well flat-bottom plates at a density of 4,000 cells per well in DMEM phenol red free media 10% FBS (20 μL volume) (charcoal stripped). Incubate the cells overnight in a cell culture incubator (5% CO2, 95% relative humidity and 37° C.) and allow the cells to attach to the plate. The following day dose the cells with the test compound. Use an Echo 555 acoustic dispenser to prepare compound serial dilutions (1:3) in a range from 6 μM to 0.0003 μM. […]
The following day, wash the cells with PBS […] (2×20 μL) and incubate with secondary antibody (20 μL/well) (1:1000 dilution, Goat anti-rabbit IgM ALEXA FLUOR™ 488) in PBS 1% BSA for 105 minutes at room temperature. […] Scan the plates with ACUMEN EXPLORER™ [Laser-scanning fluorescence microplate cytometer manufactured by TTP LABTECH LTD] to measure progesterone receptor alpha. […]

Ki (ERα (Y537S mutant)): 21.2 ± 2.12 nM
IC50 [1]: 7.6 ± 4.8 nM
Structure (SMILES): O=C(c1ccc(OCCN2CC(CF)C2)cc1)c1c(-c2ccc(C(F)(F)F)cc2F)cnc2cc(O)ccc12 [Example 1, (4-{2-[3-(Fluoromethyl)azetidin-1-yl]ethoxy}phenyl){3-[2-fluoro-4-(trifluoromethyl)phenyl]-7-hydroxyquinolin-4-yl}methanone]
